Assay: mn = molality of the nth substance listed, in mol/kg
Conditions: 298.15 K, 100 kPa, Liquid, Direct current cell with electrodes

CCNCC(O)c1cccc(O)c1.Cl (stereo unspecified) [1-(3-hydroxyphenyl)-2-ethylaminoethanol hydrochloride] + O
Conditions | electrical conductivity [S/m]
m1 = 0.01028 | 0.03
m1 = 0.01115 | 0.033
m1 = 0.01209 | 0.037
m1 = 0.01313 | 0.041
m1 = 0.01425 | 0.045
m1 = 0.01546 | 0.051
m1 = 0.01677 | 0.056
m1 = 0.0182 | 0.061
m1 = 0.01896 | 0.065
m1 = 0.01974 | 0.068
m1 = 0.02057 | 0.072
m1 = 0.02143 | 0.075
m1 = 0.02232 | 0.078
m1 = 0.02325 | 0.082
m1 = 0.02422 | 0.087
m1 = 0.02523 | 0.09
m1 = 0.02628 | 0.095
m1 = 0.02737 | 0.101
m1 = 0.02851 | 0.105
m1 = 0.0297 | 0.109
m1 = 0.03094 | 0.115
m1 = 0.03222 | 0.12
m1 = 0.03357 | 0.126
m1 = 0.03497 | 0.132
m1 = 0.03643 | 0.138
m1 = 0.03795 | 0.145
m1 = 0.03953 | 0.15
m1 = 0.04117 | 0.155
m1 = 0.04289 | 0.159
m1 = 0.04468 | 0.165
m1 = 0.04654 | 0.171
m1 = 0.04848 | 0.177
m1 = 0.0505 | 0.185
m1 = 0.0526 | 0.191
m1 = 0.05479 | 0.195
m1 = 0.05708 | 0.203
m1 = 0.05945 | 0.208
m1 = 0.06193 | 0.216
m1 = 0.06451 | 0.224
m1 = 0.0672 | 0.232
m1 = 0.07 | 0.241
